This note sets out measurements from ChEMBL document CHEMBL3407446, “Effect of new hybrids based on 5,16-pregnadiene scaffold linked to an anti-inflammatory drug on the growth of a human astrocytoma cell line (U373)” (Eur J Med Chem, 2015).

Active and inactive are the calls of the source. The rule behind the calls is not given here.

For assay [1], the system named is U-373MG ATCC. Kind of assay: Antiproliferative activity against human U373MG cells assessed reduction in cell number at 10 uM incubated for 1 to 6 days by trypan blue dye exclusion dye based inverted microscopy. It counts as functional.
Assay [2] concerns U-373MG ATCC. Kind of assay: Antiproliferative activity against human U373MG cells assessed as effect on cell number at 1 nM to 10 uM incubated for 1 to 6 days by trypan blue dye exclusion dye based inverted microscopy. It is filed as functional.
The nature of assay [3]: Antiproliferative activity against human U373MG cells assessed reduction in cell number at 10 uM incubated for 6 days by trypan blue dye exclusion dye based inverted microscopy. It counts as functional, U-373MG ATCC. The note with it: U373 MG, 144 h.
The subject of assay [4] is U-373MG ATCC. Kind of assay: Induction of cell proliferation of human U373MG cells at 1 nM and 10 nM incubated for 1 to 6 days by trypan blue dye exclusion dye based inverted microscopy. It counts as functional.
Assay [5] deals with U-373MG ATCC. The assay is described as follows: Antiproliferative activity against human U373MG cells assessed reduction in cell number at 1 nM and 10 uM incubated for 1 to 6 days by trypan blue dye exclusion dye based inverted microscopy. It counts as functional.
The test system of assay [6] is U-373MG ATCC. The assay is described as follows: Antiproliferative activity against human U373MG cells assessed reduction in cell number at 1 nM and 5 uM incubated for 1 to 6 days by trypan blue dye exclusion dye based inverted microscopy. It counts as functional.
The subject of assay [7] is U-373MG ATCC. Kind of assay: Antiproliferative activity against human U373MG cells assessed reduction in cell number at 1 nM and 10 nM incubated for 1 to 6 days by trypan blue dye exclusion dye based inverted microscopy. It counts as functional.

For the compound `CC(=O)C1=CC[C@H]2[C@@H]3CC(=O)C4=C[C@@H](OC(=O)[C@H](C)c5ccc(CC(C)C)cc5)CC[C@]4(C)[C@H]3CC[C@]12C`, the result in the assay with U-373MG ATCC [1] and in the assay with U-373MG ATCC [2] was Active. As to `CC(C)Cc1ccc(C(C)C(=O)O)cc1` (stereo not drawn), the outcome with U-373MG ATCC [2] was inactive.

With `COc1ccc2cc([C@H](C)C(=O)O)ccc2c1`, the outcome with U-373MG ATCC [2] was inactive.

For the compound `COc1ccc2cc([C@@H](C)C(=O)O[C@@H]3C=C4C(=O)C[C@@H]5[C@H](CC[C@]6(C)C(C(C)=O)=CC[C@@H]56)[C@@]4(C)CC3)ccc2c1`, the half-maximal inhibitory concentration (IC50) (as a rule, the concentration that inhibits the measured activity by half) in assay [3] stood at 17.7 µM. Besides, the outcome in the assay on U-373MG ATCC [2], in the assay with U-373MG ATCC [4] and with U-373MG ATCC [5] was Active.

Consider `CC(C(=O)O)c1cccc(C(=O)c2ccccc2)c1` (stereo not drawn), for which the outcome in the assay with U-373MG ATCC [2] was inactive. Same read-out and setting: with `CC(=O)C1=CC[C@H]2[C@@H]3CC(=O)C4=C[C@@H](OC(=O)[C@H](C)c5cccc(C(=O)c6ccccc6)c5)CC[C@]4(C)[C@H]3CC[C@]12C` the entry was “inactive”; with `COc1ccc2c(c1)c(CC(=O)O)c(C)n2C(=O)c1ccc(Cl)cc1`, “inactive”. As for `CC(=O)C1=CC[C@H]2[C@@H]3CC(=O)C4=C[C@@H](O)CC[C@]4(C)[C@H]3CC[C@]12C`, in assay [3], the IC50 was 3.02 µM. Further, in the assay on U-373MG ATCC [6], the result was Active. `COc1ccc2c(c1)c(CC(=O)O[C@@H]1C=C3C(=O)C[C@@H]4[C@H](CC[C@]5(C)C(C(C)=O)=CC[C@@H]45)[C@@]3(C)CC1)c(C)n2C(=O)c1ccc(Cl)cc1` registered a 50% inhibitory concentration (IC50) in assay [3] of 0.016 µM. For the same compound, the result in the assay with U-373MG ATCC [1] and with U-373MG ATCC [2] was Active. Turning to `CC1=C(CC(=O)O)c2cc(F)ccc2/C1=C\c1ccc([S+](C)[O-])cc1` (stereo not drawn), the outcome with U-373MG ATCC [2] and in the assay with U-373MG ATCC [7] was Active.
